Assay results: ChEMBL document CHEMBL5356948, “Microtubule stabilising peptides: new paradigm towards management of neuronal disorders” (RSC Med Chem, 2023)
Peptide text beside a SMILES is read from it.

How the values were obtained:
Tubulin = assay: Binding affinity to microtubules (unknown origin) assessed as dissociation constant; assay type: protein-complex assay, Homo sapiens
Tubulin (Homo sapiens) [1] = molecular target: T1, Tubulin (Homo sapiens) (UniProt P68371+Q9H4B7+P0DPH7+P68366+Q13509+Q71U36+P04350+Q3ZCM7+P07437+P68363+Q9BQE3+Q6PEY2+Q13885+Q9BVA1+Q9BUF5); assay: Binding affinity to tubulin (unknown origin) assessed as binding constant by […] analysis; assay type: protein-complex assay
Tubulin (Homo sapiens) [2] = molecular target: T1, Tubulin (Homo sapiens); assay: Binding affinity to microtubules (unknown origin) assessed as binding constant by turbidity assay; assay type: protein-complex assay
Tubulin (Homo sapiens) [3] = molecular target: T1, Tubulin (Homo sapiens); assay: Binding affinity to tubulin (unknown origin) assessed as binding constant; assay type: protein-complex assay
[4] = Ratio of drug concentration in CSF to plasma in Sprague-Dawley rat at 15 mg/kg,IV measured after 1 hrs; assay type: ADME, organism-based; details: CSF and plasma

CC[C@H](C)[C@H](NC(=O)[C@H](CCC(N)=O)NC(=O)[C@@H](NC(=O)[C@H](CO)NC(=O)CNC(=O)CNC(=O)CNC(=O)[C@@H]1CCCN1C(=O)[C@@H](NC(=O)[C@H](Cc1c[nH]cn1)NC(=O)[C@H](CCCCN)NC(=O)[C@H](CCCCN)NC(=O)CNC(=O)CNC(=O)CNC(=O)[C@@H](N)CS)C(C)C)C(C)C)C(=O)N[C@H](C(=O)N[C@@H](Cc1ccc(O)cc1)C(=O)N[C@@H](CCCCN)C(=O)N1CCC[C@H]1C(=O)N[C@H](C(=O)N[C@@H](CC(=O)O)C(=O)N[C@@H](CC(C)C)C(=O)O)C(C)C)C(C)C
Kd (Tubulin): 64.1 µM

CC[C@H](C)[C@H](NC(=O)[C@H](CO)NC(=O)[C@@H](NC(=O)[C@H](C)NC(=O)[C@@H](N)CC(N)=O)C(C)C)C(=O)N[C@@H](CCC(N)=O)C(=O)O (H-NAVSIQ-OH)
Activity (Tubulin (Homo sapiens) [1]): 1.14 10^3/M

CC(C)C[C@H](NC(=O)[C@H](Cc1ccccc1)NC(=O)[C@@H](NC(=O)[C@H](CCC(=O)O)NC(=O)[C@@H](N)CC(N)=O)C(C)C)C(=O)N[C@@H](CC(=O)O)C(=O)N[C@H](C(=O)N[C@@H](CCC(N)=O)C(=O)O)[C@@H](C)O (H-NEVFLDTQ-OH)
Kb (Tubulin (Homo sapiens) [2]): 2.65 10^4/M

CC(C)C[C@H](NC(=O)[C@@H](N)CO)C(=O)N[C@@H](CCCCN)C(=O)N1CCC[C@H]1C(=O)N[C@@H](C)C(=O)N[C@@H](C)C(=O)N[C@@H](CC(N)=O)C(=O)N[C@@H](CC(C)C)C(=O)N1CCC[C@H]1C(=O)N[C@@H](CC(C)C)C(=O)N[C@@H](CCCNC(=N)N)C(=O)N[C@@H](Cc1ccccc1)C(=O)O (H-SLKPAANLPLRF-OH)
Kb (Tubulin (Homo sapiens) [3]): 2.35 10^5/M

CC[C@H](C)[C@H](NC(=O)[C@H](CO)NC(=O)[C@@H](NC(=O)[C@@H]1CCCN1C(=O)[C@H](C)NC(=O)[C@@H](N)CC(N)=O)C(C)C)C(=O)N1CCC[C@H]1C(=O)N[C@@H](CCC(N)=O)C(=O)O [DAVUNETIDE]
Kp at 1 h [4]: 0.138
